Counter-ions that a name gives are not always drawn. Like-named read-outs stand apart in the source and are kept apart here.
Legend:
[1] = test system: Staphylococcus aureus FDA 209 P; assay: Antibacterial activity, agar plate dilution method (MIC), S. aureus; format: cell-based; details: FDA209
Procedure: (§1) Antibacterial activities of the compounds of the present invention were tested about various microorganisms using an agar plate dilution method. Commercial cefazolin sodium was used as a control. The test results for 7-[D-α-(4-hydroxy-pyrazino[2,3-f]quinoline-3-carboxamido)-α-phenylacetamido]-3-(1-carboxymethyl-tetrazole-5-yl)thiomethyl-Δ^3 -cephem-4-carboxylic acid disodium salt (TC-203) and 7-[D-Δ-(4-hydroxy-pyrazino[2,3-f]quinoline-3-carboxamido)-Δ-(4-hydroxyphenyl)acetamido]-3-(1-carboxymethyl-tetrazole-5-yl)thiomethyl-Δ^3 -cephem-4-carboxylic acid disodium salt (TC-403) are expressed by MIC value (Minimum Inhibitory Concentration, μg/ml) and shown in Table 1.

Escherichia coli NIHJC-2 = assay: Antibacterial activity, agar plate dilution method (MIC), E. coli; format: cell-based; details: NIHJC2
Procedure: as §1

[2] = test system: Klebsiella pneumoniae 3K-2; assay: Antibacterial activity, agar plate dilution method (MIC), K. pneumoniae; format: cell-based; details: 3K2
Procedure: as §1

[3] = test system: Pseudomonas aeruginosa NC-5; assay: Antibacterial activity, agar plate dilution method (MIC), P. aeruginosa; format: cell-based; details: NC5
Procedure: as §1

Proteus vulgaris IID 874 = assay: Antibacterial activity, agar plate dilution method (MIC), P. vulgaris; format: cell-based; details: IID874
Procedure: as §1

in vivo = assay: in vivo; design: species or system mice; details: mouse, im
Procedure: The compounds of the present invention were administered to mice intramuscularly and change of blood levels with lapse of time was determined. Commercial cefazolin sodium was used as a control.

[4] = Intraperitoneal acute toxicity in rats; format: in vivo; details: dose less than 5000 mg/kg of body weight
Excerpt: The compounds of the present invention are of low toxicity.

[5] = Escherichia coli NIHJC-2, agar plate dilution, read-out: MIC

Compound	MIC [1]	MIC (Escherichia coli NIHJC-2; [5])	MIC [2]	MIC [3]	MIC (Proteus vulgaris IID 874)	concentration at 0.25 h (in vivo)	concentration at 0.5 h (in vivo)	concentration at 1 h (in vivo)	concentration at 2 h (in vivo)	intraperitoneal acute toxicity [4]	MIC (Escherichia coli NIHJC-2; Escherichia coli)
O=C(O)Cn1nnnc1SCC1=C(C(=O)O)N2C(=O)[C@@H](NC(=O)[C@H](NC(=O)c3cnc4ccc5nccnc5c4c3O)c3ccc(O)cc3)[C@H]2SC1 [TC-403, 7-[D-Δ-(4-hydroxy-pyrazino[2,3-f]quinoline-3-carboxamido)-Δ-(4-hydroxyphenyl)acetamido]-3-(1-carboxymethyl-tetrazole-5-yl)thiomethyl-Δ^3-cephem-4-carboxylic acid disodium salt]	6.25 µg/mL	1.56 µg/mL	1.56 µg/mL	12.5 µg/mL	3.13 µg/mL	92 µg/mL	180 µg/mL	62 µg/mL	42 µg/mL	hardly shows any intraperitoneal acute toxicity in rats at a dose less than 5000 mg/kg of body weight	–
Cc1nnc(SCC2=C(C(=O)O)N3C(=O)[C@@H](NC(=O)Cn4cnnn4)[C@H]3SC2)s1 [cefazolin sodium, reference compound]	< 0.1 µg/mL	–	> 100 µg/mL	> 100 µg/mL	> 100 µg/mL	62 µg/mL	42 µg/mL	5.5 µg/mL	–	–	1.56 µg/mL
O=C(O)Cn1nnnc1SCC1=C(C(=O)O)N2C(=O)[C@@H](NC(=O)[C@H](NC(=O)c3cnc4ccc5nccnc5c4c3O)c3ccccc3)[C@H]2SC1 [TC-203, 7-[D-α-(4-hydroxy-pyrazino[2,3-f]quinoline-3-carboxamido)-α-phenylacetamido]-3-(1-carboxymethyl-tetrazole-5-yl)thiomethyl-Δ^3-cephem-4-carboxylic acid disodium salt]	3.13 µg/mL	0.78 µg/mL	0.78 µg/mL	12.5 µg/mL	1.56 µg/mL	150 µg/mL	162 µg/mL	82 µg/mL	32 µg/mL	–	–
